Measured values from patent publication US20230348426A1, “OXOPYRROLIDINE FPR2 AGONISTS” (Bristol-Myers Squibb Company, priority 2020, published 2023).
pEC50: −log10 of the molar value.

Legend:
[1] = target: human FPR2 (Homo sapiens (Human), UniProt P25090); experiment: FPR2 cyclic adenosine monophosphate (cAMP) assay; format: cell-based; settings: CHO cells overexpressing human FPR2; forskolin 5 µM; inhibition of cAMP production; read-out: hFPR2 cAMP2 EC50
Method in brief: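 CHO cells overexpressing human FPR2 (2,000/well) incubated 30 min at room temperature with compound (0.020 nM–100 µM, 1% DMSO), 5 µM forskolin and 200 µM IBMX.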

[2] = target: human FPR1 (Homo sapiens (Human), UniProt P21462); experiment: FPR1 cyclic adenosine monophosphate (cAMP) assay; format: cell-based; settings: CHO cells overexpressing human FPR1; forskolin 10 µM; inhibition of cAMP production; read-out: hFPR1 cAMP EC50
Sequence of human FPR1 (P21462 whole entry): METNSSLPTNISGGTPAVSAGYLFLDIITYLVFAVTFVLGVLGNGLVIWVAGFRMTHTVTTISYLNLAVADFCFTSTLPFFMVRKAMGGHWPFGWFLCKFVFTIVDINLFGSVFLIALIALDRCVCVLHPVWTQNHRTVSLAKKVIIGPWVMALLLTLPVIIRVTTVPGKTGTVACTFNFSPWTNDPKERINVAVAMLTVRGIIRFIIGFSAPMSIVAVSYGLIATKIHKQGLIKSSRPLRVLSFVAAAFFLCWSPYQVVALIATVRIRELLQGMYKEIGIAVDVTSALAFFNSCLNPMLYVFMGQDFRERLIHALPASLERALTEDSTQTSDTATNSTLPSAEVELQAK
Method in brief: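 CHO cells overexpressing human FPR1 (4,000 cells/well) stimulated with 10 µM forskolin plus 200 µM IBMX in the presence of compound (0.020 nM–100 µM, 1% DMSO), 30 min at room temperature. Intracellular cAMP measured by HTRF. Inhibition of cAMP production fitted to a 4-parameter logistic equation.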

Sequence of human FPR2 (P25090 whole entry): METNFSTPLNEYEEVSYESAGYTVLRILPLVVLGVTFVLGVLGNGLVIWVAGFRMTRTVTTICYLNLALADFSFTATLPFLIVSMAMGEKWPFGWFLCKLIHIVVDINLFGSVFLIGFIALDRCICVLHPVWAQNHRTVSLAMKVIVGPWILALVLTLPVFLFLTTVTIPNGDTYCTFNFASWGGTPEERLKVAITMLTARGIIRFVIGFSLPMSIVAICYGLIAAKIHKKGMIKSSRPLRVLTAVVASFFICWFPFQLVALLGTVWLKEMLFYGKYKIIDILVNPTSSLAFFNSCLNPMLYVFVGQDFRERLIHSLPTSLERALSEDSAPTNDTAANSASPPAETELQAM

pEC50 [1]	pEC50 [2]	SMILES
8.66	6.57	COc1cc(F)c([C@@H]2CN(c3cccn4cc(C)nc34)C(=O)[C@H]2NC(=O)c2ccc(Cl)cc2)c(F)c1 [Example 493]
8.47	6.36	COc1cc(F)c([C@@H]2CN(c3cccn4cc(CO)nc34)C(=O)[C@H]2NC(=O)c2ccc(Cl)cc2)c(F)c1 [Example 494]
8.80	6.07	COc1cc(F)c([C@@H]2CN(c3cccn4cc(C5CC5)nc34)C(=O)[C@H]2NC(=O)c2ccc(Cl)cc2)c(F)c1 [Example 495]
8.52	5.96	COc1cc(F)c([C@@H]2CN(c3cccn4cc(C(C)C)nc34)C(=O)[C@H]2NC(=O)c2ccc(Cl)cc2)c(F)c1 [Example 496]
8.92	6.14	COc1cc(F)c([C@@H]2CN(c3cccn4cc(C(F)(F)F)nc34)C(=O)[C@H]2NC(=O)c2ccc(Cl)cc2)c(F)c1 [Example 497]
8.74	< 5.30	COc1cc(C2CCN(C)CC2)nc(N2C[C@@H](c3c(F)cc(OC)cc3F)[C@H](NC(=O)c3ccc(OC(F)F)cc3)C2=O)c1 [Example 498]
7.54	7.22	COc1cc(F)c([C@@H]2CN(c3cc(OCC4CCCO4)ncn3)C(=O)[C@H]2NC(=O)c2ccc(Cl)cc2)c(F)c1 (some centres unmarked) [Example 499]
8.66	6.15	COc1cc(F)c([C@@H]2CN(c3cccc(C4=CNCCC4)n3)C(=O)[C@H]2NC(=O)c2ccc(OC(F)F)cc2)c(F)c1 [Example 500]
8.80	5.60	COc1cc(F)c([C@@H]2CN(c3cccc(C4CCCN(CCO)C4)n3)C(=O)[C@H]2NC(=O)c2ccc(OC(F)F)cc2)c(F)c1 (some centres unmarked) [Example 501]
8.11	6.05	COc1cc(F)c([C@@H]2CN(c3cccc(C4CCCN(CCO)C4)n3)C(=O)[C@H]2NC(=O)c2ccc(OC(F)F)cc2)c(F)c1 (some centres unmarked) [Example 502]
8.37	5.46	COc1cc(F)c([C@H]2[C@H](NC(=O)c3ccc(Cl)cc3)C(=O)N(c3cncn(CC(F)F)c3=O)[C@@H]2C)c(F)c1 [Example 503]
8.66	5.48	COc1cc(C2CCN(CCO)CC2)nc(N2C(=O)[C@@H](NC(=O)c3ccc(OC(F)F)cc3)[C@H](c3c(F)cc(OC)cc3F)[C@@H]2C)c1 [Example 504]
7.00	5.47	COc1cc(F)c([C@H]2[C@H](NC(=O)c3ccc(OC(F)F)cc3)C(=O)N(c3cccc(P(C)(C)=O)n3)[C@H]2C)c(F)c1 [Example 505]
9.10	7.17	COc1cc(F)c([C@@H]2CN(c3c(C)ccn(C4CCNCC4)c3=O)C(=O)[C@H]2NC(=O)c2ccc(Cl)cc2)c(F)c1 [Example 506]
8.64	6.82	COc1cc(F)c([C@@H]2CN(c3c(C)ccn(C4CCN(C)C4)c3=O)C(=O)[C@H]2NC(=O)c2ccc(OC(F)F)cc2)c(F)c1 (some centres unmarked) [Example 507]
8.19	6.96	COc1cc(F)c([C@@H]2CN(c3c(C)ccn(C4CCN(C)C4)c3=O)C(=O)[C@H]2NC(=O)c2ccc(OC(F)F)cc2)c(F)c1 (some centres unmarked) [Example 508]
7.39	7.10	COc1cc(F)c([C@@H]2CN(c3cc(OCC4CCOC4)ncn3)C(=O)[C@H]2NC(=O)c2ccc(Cl)cc2)c(F)c1 (some centres unmarked) [Example 509]
7.18	6.41	COc1cc(F)c([C@@H]2CN(c3cccc(P(C)(C)=O)n3)C(=O)[C@H]2NC(=O)c2ccc(Cl)cc2)c(F)c1 [Example 511]
8.43	5.68	COc1cc(F)c([C@H]2[C@H](NC(=O)c3ccc(OC(F)F)cc3)C(=O)N(c3cccc(C4CCCN(C)C4)n3)[C@H]2C)c(F)c1 (some centres unmarked) [Example 512]
8.62	5.82	COc1cc(F)c([C@H]2[C@H](NC(=O)c3ccc(OC(F)F)cc3)C(=O)N(c3cccc(C4CCCN(C)C4)n3)[C@H]2C)c(F)c1 (some centres unmarked) [Example 513]
8.59	6.57	COc1cc(F)c([C@@H]2CN(c3cncn(C4CCN(C)C4)c3=O)C(=O)[C@H]2NC(=O)c2ccc(Cl)cc2)c(F)c1 (some centres unmarked) [Example 514]
8.68	5.66	COc1cc(F)c([C@H]2[C@H](NC(=O)c3ccc(OC(F)F)cc3)C(=O)N(c3cccc(C4CCCN(CCO)C4)n3)[C@H]2C)c(F)c1 (some centres unmarked) [Example 515]
8.89	5.77	COc1cc(F)c([C@H]2[C@H](NC(=O)c3ccc(OC(F)F)cc3)C(=O)N(c3cccc(C4CCCN(CCO)C4)n3)[C@H]2C)c(F)c1 (some centres unmarked) [Example 516]
8.55	5.74	COc1cc(F)c([C@@H]2CN(c3cncn(C(CO)C(F)(F)F)c3=O)C(=O)[C@H]2NC(=O)c2ccc(Cl)cc2)c(F)c1 (some centres unmarked) [Example 517]
8.70	5.48	COc1cc(F)c([C@@H]2CN(c3cncn(C(CO)C(F)(F)F)c3=O)C(=O)[C@H]2NC(=O)c2ccc(Cl)cc2)c(F)c1 (some centres unmarked) [Example 518]

pEC50 [1]	pEC50 [2]	SMILES
8.51	6.32	COc1cc(F)c([C@@H]2CN(c3cccn4ccnc34)C(=O)[C@H]2NC(=O)c2ccc(Cl)cc2)c(F)c1 [Example 519]
8.31	5.89	CCn1cnc(C)c(N2C[C@@H](c3c(F)cc(OC)cc3F)[C@H](NC(=O)c3ccc(Cl)cc3)C2=O)c1=O [Example 520]
8.05	6.48	COCCn1cnc(C)c(N2C[C@@H](c3c(F)cc(OC)cc3F)[C@H](NC(=O)c3ccc(Cl)cc3)C2=O)c1=O [Example 521]
8.27	< 5.30	COc1cc(F)c([C@@H]2CN(c3c(C)ncn(CC4(C)COC4)c3=O)C(=O)[C@H]2NC(=O)c2ccc(Cl)cc2)c(F)c1 [Example 522]
8.85	5.44	COc1cc(F)c([C@H]2[C@H](NC(=O)c3ccc(OC(F)F)cc3)C(=O)N(c3cccc(C4CCN(C)CC4)n3)[C@H]2C)c(F)c1 [Example 523]
9.10	5.85	COc1cc(F)c([C@H]2[C@H](NC(=O)c3ccc(OC(F)F)cc3)C(=O)N(c3cccc(C4CCN(CCO)CC4)n3)[C@H]2C)c(F)c1 [Example 524]
8.85	6.38	COc1cc(F)c([C@@H]2CN(c3cccc(C4CCN(C)CC4)n3)C(=O)[C@H]2NC(=O)c2ccc(OC(F)F)cc2)c(F)c1 [Example 525]
8.96	5.64	COc1cc(F)c([C@H]2[C@H](NC(=O)c3ccc(OC(F)F)cc3)C(=O)N(c3cccc(N4C[C@@H]5C[C@H]4CN5C)n3)[C@H]2C)c(F)c1 [Example 526]
8.89	6.11	COc1cc(F)c([C@@H]2CN(c3cccc(C4CCN(CCO)CC4)n3)C(=O)[C@H]2NC(=O)c2ccc(OC(F)F)cc2)c(F)c1 [Example 527]
9.70	6.22	COc1cc(F)c([C@H]2[C@H](NC(=O)c3ccc(OC(F)F)cc3)C(=O)N(c3cccc(C4CCNCC4)n3)[C@H]2C)c(F)c1 [Example 528]
8.17	< 5.30	COc1cc(C2CCNCC2)nc(N2C(=O)[C@@H](NC(=O)c3ccc(OC(F)F)cc3)[C@H](c3c(F)cc(OC)cc3F)[C@@H]2C)c1 [Example 529]
8.51	6.17	COc1cc(F)c([C@@H]2CN(c3c(C)ccn(C4CCNC4)c3=O)C(=O)[C@H]2NC(=O)c2ccc(Cl)cc2)c(F)c1 (some centres unmarked) [Example 530]
8.80	5.49	COc1cc(F)c([C@@H]2CN(c3cccc(N4C[C@@H]5C[C@H]4CN5C)n3)C(=O)[C@H]2NC(=O)c2ccc(OC(F)F)cc2)c(F)c1 [Example 531]
8.64	6.20	COc1cc(F)c([C@@H]2CN(c3ncn(CC(C)C)n3)C(=O)[C@H]2NC(=O)c2ccc(Cl)cc2)c(F)c1 [Example 532]
8.40	6.05	COc1cc(F)c([C@@H]2CN(c3c(C)ncn(CC(F)F)c3=O)C(=O)[C@H]2NC(=O)c2ccc(Cl)cc2)c(F)c1 [Example 533]
8.47	< 5.30	COc1cc(C2CCNCC2)nc(N2C[C@@H](c3c(F)cc(OC)cc3F)[C@H](NC(=O)c3ccc(OC(F)F)cc3)C2=O)c1 [Example 534]
9.00	6.70	COc1cc(F)c([C@@H]2CN(c3nc(OCC4CCOC4)ccc3F)C(=O)[C@H]2NC(=O)c2ccc(OC(F)F)cc2)c(F)c1 (some centres unmarked) [Example 535]
8.68	6.19	COc1cc(F)c([C@@H]2CN(c3cccc(C4CCN(C)CC4)n3)C(=O)[C@H]2NC(=O)c2ccc(OC(F)F)cc2)c(F)c1 [Example 536]
8.00	7.46	COc1cc(F)c([C@H]2[C@H](NC(=O)c3ccc(OC(F)F)cc3)C(=O)N(c3cccc(C4CCN(CC(F)F)CC4)n3)[C@H]2C)c(F)c1 [Example 537]
8.89	5.70	COc1cc(C2CCN(C)CC2)nc(N2C(=O)[C@@H](NC(=O)c3ccc(OC(F)F)cc3)[C@H](c3c(F)cc(OC)cc3F)[C@@H]2C)c1 [Example 538]
8.17	6.33	COc1cc(C2CCOCC2)nc(N2C(=O)[C@@H](NC(=O)c3ccc(OC(F)F)cc3)[C@H](c3c(F)cc(OC)cc3F)[C@H]2C)c1 [Example 539]
7.70	6.09	COc1cc(F)c([C@@H]2CN(c3ncn(CC(F)F)n3)C(=O)[C@H]2NC(=O)c2ccc(Cl)cc2)c(F)c1 [Example 541]
8.24	5.92	COc1cc(F)c([C@@H]2CN(c3cncn(C4CCOCC4)c3=O)C(=O)[C@H]2NC(=O)c2ccc(Cl)cc2)c(F)c1 [Example 542]
8.16	5.72	COc1cc(F)c([C@@H]2CN(c3cncnc3OC3CCOCC3)C(=O)[C@H]2NC(=O)c2ccc(Cl)cc2)c(F)c1 [Example 543]
